# Assay results reported in ChEMBL document CHEMBL4808172, “Structure-Activity Relationship of Heterocyclic P2Y14 Receptor Antagonists: Removal of the Zwitterionic Character with Piperidine Bioisosteres” (J Med Chem, 2021).
# “And” between values parts separate entries of the source, which are not always exact repeats. Equal values may be shown once. The source made the active and inactive calls. The calls are words filed in the database; no cut-off is given here.
# Experiments:
# [1] = Stability in mouse plasma assessed as half life; format: ADME, cell-free
# Mus musculus [2] = test: Reversal of CCI-induced mechano-allodynia in mouse model of neuropathic pain at 10 umol/kg, ip after 2 hrs; format: functional, organism-based; conditions: dose 10.0 µmol/kg
# [3] = Elimination rate constant in Wistar rat at 0.5 mg/kg, iv measured upto 24 hrs by HPLC-MS/MS method; format: ADME, organism-based; conditions: in vivo
# [4] = Microsomal stability in rat liver microsomes assessed as half life; format: ADME, Microsome
# [5] = Stability of compound in stimulated gastric fluid assessed as half life; format: ADME; conditions: simulated gi fluid
# [6] = Bioavailability in Wistar rat at 0.5 mg/kg, iv measured upto 24 hrs by HPLC-MS/MS method; format: ADME, organism-based; conditions: in vivo
# [7] = Bioavailability in Wistar rat at 3 mg/kg, ip measured upto 24 hrs by HPLC-MS/MS method; format: ADME, organism-based; conditions: in vivo
# [8] = AUC (0 to infinity) in Wistar rat at 1 mg/kg, ip measured upto 24 hrs by HPLC-MS/MS method; format: ADME, organism-based; design: route intraperitoneal, dose 1 mg/kg, time <=24; conditions: in vivo
# [9] = target: Sigma intracellular receptor 2 (Homo sapiens, UniProt Q5BJF2); test: Binding affinity to sigma 2 receptor (unknown origin)
# [10] = Clearance in Wistar rat at 10 mg/kg, ip measured upto 24 hrs by HPLC-MS/MS method; format: ADME, organism-based; conditions: in vivo
# HepG2 = test: Cytotoxicity against human HepG2 cells; format: cell-based
# [11] = Bioavailability in Wistar rat at 1 mg/kg, ip measured upto 24 hrs by HPLC-MS/MS method; format: ADME, organism-based; conditions: in vivo
# [12] = Elimination rate constant in Wistar rat at 3 mg/kg, ip measured upto 24 hrs by HPLC-MS/MS method; format: ADME, organism-based; conditions: in vivo
# [13] = Bioavailability in Wistar rat at 10 mg/kg, ip measured upto 24 hrs by HPLC-MS/MS method; format: ADME, organism-based; conditions: in vivo
# [14] = Microsomal stability in human liver microsomes assessed as half life; format: ADME, Microsome
# [15] = Elimination rate constant in Wistar rat at 10 mg/kg, ip measured upto 24 hrs by HPLC-MS/MS method; format: ADME, organism-based; conditions: in vivo
# [16] = Clearance in Wistar rat at 1 mg/kg, ip measured upto 24 hrs by HPLC-MS/MS method; format: ADME, organism-based; conditions: in vivo
# [17] = Toxicity in mouse at 10 umol/kg, ip; conditions: in vivo, dose 10 µmol/kg
# [18] = Elimination rate constant in Wistar rat at 1 mg/kg, ip measured upto 24 hrs by HPLC-MS/MS method; format: ADME, organism-based; conditions: in vivo
# Mus musculus [19] = test: Reversal of CCI-induced mechano-allodynia in mouse model of neuropathic pain at 10 umol/kg, ip measured after 3 to 5 hrs; format: functional, organism-based; conditions: dose 10.0 µmol/kg, time 3-5 hrs
# [20] = Aqueous solubility of compound at pH 7.4; format: physicochemical; conditions: buffer
# [21] = Microsomal stability in mouse liver microsomes assessed as half life; format: ADME, Microsome
# [22] = Stability in rat plasma assessed as half life; format: ADME, cell-free
# [23] = Clearance in Wistar rat at 3 mg/kg, ip measured upto 24 hrs by HPLC-MS/MS method; format: ADME, organism-based; conditions: in vivo
# [24] = Stability of compound in stimulated intestinal fluid assessed as half life; format: ADME; conditions: simulated gi fluid
# Translocator protein = Translocator protein (Homo sapiens, UniProt P30536); test: Binding affinity to TSPO (unknown origin)
# [25] = target: Sigma non-opioid intracellular receptor 1 (Homo sapiens, UniProt Q99720); test: Binding affinity to sigma 1 receptor (unknown origin)
# Sequence of Sigma non-opioid intracellular receptor 1 (Q99720 whole entry): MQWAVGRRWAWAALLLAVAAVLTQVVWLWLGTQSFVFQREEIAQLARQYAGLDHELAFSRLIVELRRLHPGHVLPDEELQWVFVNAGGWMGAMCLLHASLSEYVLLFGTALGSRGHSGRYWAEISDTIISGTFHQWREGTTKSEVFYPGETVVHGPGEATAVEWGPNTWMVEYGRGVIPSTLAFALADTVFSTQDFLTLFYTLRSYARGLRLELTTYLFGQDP
# Sequence of Sigma intracellular receptor 2 (Q5BJF2 whole entry): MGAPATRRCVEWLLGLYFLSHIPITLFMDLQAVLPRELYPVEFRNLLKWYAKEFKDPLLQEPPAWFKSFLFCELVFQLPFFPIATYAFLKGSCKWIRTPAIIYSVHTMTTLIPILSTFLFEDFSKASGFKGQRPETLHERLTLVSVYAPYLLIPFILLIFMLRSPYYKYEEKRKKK
# Sequence of Translocator protein (P30536 whole entry): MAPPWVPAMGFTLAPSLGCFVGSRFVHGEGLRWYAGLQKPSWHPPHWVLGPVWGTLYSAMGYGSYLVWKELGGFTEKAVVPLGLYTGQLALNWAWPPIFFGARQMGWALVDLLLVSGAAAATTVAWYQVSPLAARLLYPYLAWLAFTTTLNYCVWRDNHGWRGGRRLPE
smiles,measurement,setting,value
O=C(O)c1cc(-c2ccc(-c3cc(CO)on3)cc2)c2ccc(-c3ccc(C(F)(F)F)cc3)cc2c1,t1/2,[1],> 240 min
same,Activity,Mus musculus [2],inactive
same,k el at 24 h,[3],0.000281 s⁻¹
same,t1/2,[4],47.7 min
same,t1/2,[5],161 min
same,F,[6],100%
same,F,[7],147%
same,AUC,[8],700 ng·h/mL
same,Ki,[9],4.78 µM
same,CL/F,[10],33.8 mL/min/kg
same,IC50,HepG2,8.47 µM
same,F,[11],139%
same,k el at 24 h,[12],4.11e-05 s⁻¹
same,F,[13],105%
same,t1/2,[14],> 240 min
same,k el at 24 h,[15],6.47e-05 s⁻¹
same,CL/F,[16],23.8 mL/min/kg
same,Activity,[17],Non-Toxic
same,k el at 24 h,[18],2.67e-05 s⁻¹
same,Activity,Mus musculus [19],inactive
same,solubility,[20],2.43 ug ml-1 and 4.96 uM
same,t1/2,[21],> 240 min
same,t1/2,[22],> 240 min
same,CL/F,[23],23.7 mL/min/kg
same,t1/2,[24],> 240 min
same,Ki,Translocator protein,4.63 µM
same,Ki,[25],2680 nM
